Laboratory results taken from patent publication US11472807B2, “Purine derivatives for use as medicament and for use in treating neurodegenerative or neuro-inflammatory disorders” (COMMISSARIAT À L'ENERGIE ATOMIQUE ET AUX ENERGIES …, priority 2017, dated 2022).

Experiments:
[1] = test system: aggregates of β-pleated sheets; test: Thioflavin-S immunohistochemistry of total brain tissue of treated mice; assay type: in vivo; conditions: mice treated during 28 days
Procedure: C57B1 were exposed subcutaneously to Aftin-5 using osmotic minipumps ([…]; Saint-Germain-Nuelles, France). Aftin-5 was dissolved in DMSO:propylene glycol:ethanol (45:45:10). Mice were treated with 1, 3 or 30 mg/Kg for 28 days. Filled pumps were left in saline overnight at 37° C. for priming. Mice were anesthetized with isoflurane (3-4% v/v, 1.5 mL/min) in an induction chamber and maintained under anesthesia through a mask. Mice were shaved on their back, disinfected and an incision made between the scapulae for pump implantation and finally closed with clips. 1% lidocaine gel was applied over the incision for local analgesia. Animals recovered from anesthesia in heated pads and immediately returned to the cages.
Immunohistochemistry assay was conducted with the total brain tissue, from mice treated with Aftin-5 during 28 days, in the presence of Thioflavin-S dye, which binds aggregates of β-pleated sheets.

[2] = test system: Thr231 phosphorylated Tau; test: Tau phosphorylation (Thr231) in neuronal primary cultures (MSD); assay type: cell-based, mice; conditions: neurons, 50 μM, 100 μM and 150 μM for 18 h
Procedure: FIG. 7. Plots illustrating the effect of Aftin-5 mediated attenuation of Tau phosphorylation in neuronal primary cultures. Culture media of cortical neurons were replaced by incubation medium containing Aftin-5 at 100 μM (A100) or 150 μM (A150) or vehicle (0.1% DMSO; Control). After 18 h incubation pTau (Thr231) and total Tau were quantified by sandwich immunoassay using the Meso Scale Discovery technology. Different Tau concentrations were expressed versus total proteins concentration. Kruskal-Wallis test and Dunn's Multiple Comparison post-hoc tests were performed and ***p<0.001 indicates significant differences between Aftin-5 and control conditions. Data expressed as means+/−SEM (n=6 wells/condition).
(§1) Hippocampi and cortex were dissected in HBSS containing 5 mM glucose (dissection medium). […] Cells were counted and seeded at a density of 22,000 per cm^2 for hippocampal neurons and 10^5 per cm^2 for cortical neurons into 24 wells culture plates (Costar) in plating medium (DMEM medium containing 10% heat-inactivated horse serum (Life Technologies)). […]
Tau and P-Tau in primary rat neurons, organotypic hippocampal slice cultures from wild type (WT) and transgenic Tau mice (3 Tg) after by Aftin-5. Tau was quantified by sandwich immunoassay using the Meso Scale Discovery technologies. […] After a short incubation (5 min) at room temperature, the plate is read on the SECTOR Imager 2400. […]

[3] = test system: amyloid precursor protein (APP); test: APP protein expression in neuronal primary cultures (Western blot); assay type: cell-based; conditions: hippocampal neurons, 100 μM, 18 h
Procedure: FIG. 8. Plots illustrating the effect of Aftin-5 on APP protein expression in neuronal primary cultures. Culture medium of hippocampal neurons was replaced by incubation medium containing Aftin-5 (100 μM) or vehicle (0.1% DMSO). 18 h later, APP protein in lysate was quantified by Western blotting with anti-APP polyclonal antibody (Millipore). The Western blots were quantified by densitometric analysis. Relative APP protein expression was expressed (Aftin-5) as comparison with the control condition (vehicle; Ctrl). Data expressed as means+/−SEM from one experiment with n=5 wells/condition.
as §1
Cells were lysed in freshly prepared lysis buffer containing in mM: Tris-HCl 50, EDTA 2, EGTA 2, NaCl 100, SDS 0.2%, Triton X-100 1%, proteases inhibitors (Roche Protease Inhibitor Cocktail #04693116001), phosphatases inhibitors (in mM: ammonium molybdate 0.1, β-glycerophosphate 20, NaF 50, Na-pyrophosphate 10, Orthovanadate 1). Protein concentration was measured by the Bradford assay and Laemmli buffer was added to each lysate. […]

- aggregates of β-pleated sheets (Thioflavin-S binding) [1]: absence
SMILES: CC[C@H](CO)Nc1nc(N(C)c2ccccc2)c2ncn(C(C)C)c2n1 [Aftin-5]
- Thr231 phosphorylated Tau protein [2]: significant dose dependent decrease
- level of APP [3]: does not change
